Experimental data taken from the NIST ThermoML archive (doi:10.1016/j.jct.2009.07.002).

Experiment: isobaric coefficient of expansion
Settings: Liquid, DSC with Pressure Shift

CCCCCN [1-pentanamine]
isobaric coefficient of expansion
Settings	278.15 K	288.15 K	298.15 K	308.15 K	318.15 K	328.15 K	338.15 K	348.15 K
5000 kPa	0.00109 1/K	0.00111 1/K	0.00112 1/K	0.00114 1/K	0.00116 1/K	0.00118 1/K	0.0012 1/K	0.00123 1/K
10000 kPa	0.00107 1/K	0.00108 1/K	0.00109 1/K	0.00111 1/K	0.00112 1/K	0.00114 1/K	0.00116 1/K	0.00118 1/K
15000 kPa	0.00105 1/K	0.00106 1/K	0.00107 1/K	0.00108 1/K	0.00109 1/K	0.0011 1/K	0.00112 1/K	0.00113 1/K
20000 kPa	0.00102 1/K	0.00104 1/K	0.00104 1/K	0.00106 1/K	0.00106 1/K	0.00107 1/K	0.00108 1/K	0.0011 1/K
25000 kPa	0.00101 1/K	0.00102 1/K	0.00102 1/K	0.00103 1/K	0.00104 1/K	0.00104 1/K	0.00105 1/K	0.00106 1/K
30000 kPa	0.000988 1/K	0.000994 1/K	0.001 1/K	0.00101 1/K	0.00101 1/K	0.00102 1/K	0.00102 1/K	0.00103 1/K
35000 kPa	0.000969 1/K	0.000973 1/K	0.000981 1/K	0.000988 1/K	0.000989 1/K	0.000989 1/K	0.000993 1/K	0.000999 1/K
40000 kPa	0.000954 1/K	0.000958 1/K	0.000966 1/K	0.000968 1/K	0.000967 1/K	0.000971 1/K	0.000972 1/K	0.000972 1/K
45000 kPa	0.000938 1/K	0.000937 1/K	0.000944 1/K	0.000949 1/K	0.000947 1/K	0.000949 1/K	0.000951 1/K	0.000954 1/K
50000 kPa	0.000921 1/K	0.000925 1/K	0.000927 1/K	0.000929 1/K	0.000928 1/K	0.000931 1/K	0.00093 1/K	0.00093 1/K
55000 kPa	0.000895 1/K	0.0009 1/K	0.000894 1/K	0.000898 1/K	0.000898 1/K	0.000898 1/K	0.000899 1/K	0.000891 1/K

CCC(O)CC [3-pentanol]
isobaric coefficient of expansion
Settings	278.15 K	288.15 K	298.15 K	308.15 K	318.15 K	328.15 K	338.15 K	348.15 K
5000 kPa	0.000898 1/K	0.000935 1/K	0.000971 1/K	0.00101 1/K	0.00106 1/K	0.00109 1/K	0.00115 1/K	0.0012 1/K
10000 kPa	0.000875 1/K	0.000916 1/K	0.000952 1/K	0.00099 1/K	0.00103 1/K	0.00107 1/K	0.00113 1/K	0.00117 1/K
15000 kPa	0.000861 1/K	0.000898 1/K	0.000935 1/K	0.00097 1/K	0.00101 1/K	0.00104 1/K	0.0011 1/K	0.00113 1/K
20000 kPa	0.00085 1/K	0.000882 1/K	0.000917 1/K	0.000953 1/K	0.000989 1/K	0.00103 1/K	0.00107 1/K	0.00111 1/K
25000 kPa	0.000826 1/K	0.000868 1/K	0.000899 1/K	0.000934 1/K	0.00097 1/K	0.00101 1/K	0.00105 1/K	0.00108 1/K
30000 kPa	0.000814 1/K	0.00085 1/K	0.00088 1/K	0.000919 1/K	0.000952 1/K	0.000983 1/K	0.00102 1/K	0.00106 1/K
35000 kPa	0.000802 1/K	0.000837 1/K	0.000866 1/K	0.000899 1/K	0.000932 1/K	0.000965 1/K	0.001 1/K	0.00103 1/K
40000 kPa	0.000799 1/K	0.000823 1/K	0.000852 1/K	0.000888 1/K	0.000914 1/K	0.000949 1/K	0.000976 1/K	0.00101 1/K
45000 kPa	0.000766 1/K	0.000807 1/K	0.000839 1/K	0.000869 1/K	0.000897 1/K	0.00093 1/K	0.000953 1/K	0.000986 1/K
50000 kPa	0.000769 1/K	0.000792 1/K	0.000822 1/K	0.000852 1/K	0.000879 1/K	0.000907 1/K	0.000931 1/K	0.00096 1/K
55000 kPa	0.000743 1/K	0.000771 1/K	0.000806 1/K	0.000837 1/K	0.000862 1/K	0.000887 1/K	0.00091 1/K	0.000936 1/K

CCCCCCCCCCO [decan-1-ol]
isobaric coefficient of expansion
Settings	298.15 K	308.15 K	318.15 K	328.15 K	338.15 K	348.15 K
5000 kPa	0.000809 1/K	0.000822 1/K	0.000837 1/K	0.00085 1/K	0.000869 1/K	0.000895 1/K
10000 kPa	0.000792 1/K	0.0008 1/K	0.000814 1/K	0.000827 1/K	0.000843 1/K	0.000863 1/K
15000 kPa	0.000776 1/K	0.000784 1/K	0.000795 1/K	0.000803 1/K	0.000819 1/K	0.000832 1/K
20000 kPa	0.000755 1/K	0.000764 1/K	0.000775 1/K	0.000781 1/K	0.000799 1/K	0.000812 1/K
25000 kPa	0.000739 1/K	0.000748 1/K	0.000758 1/K	0.000765 1/K	0.000779 1/K	0.000792 1/K
30000 kPa	0.000725 1/K	0.00073 1/K	0.000743 1/K	0.000748 1/K	0.00076 1/K	0.000775 1/K
35000 kPa	0.000715 1/K	0.000719 1/K	0.000726 1/K	0.000732 1/K	0.000745 1/K	0.000755 1/K
40000 kPa	0.000702 1/K	0.000706 1/K	0.000711 1/K	0.000719 1/K	0.000729 1/K	0.000738 1/K
45000 kPa	0.00069 1/K	0.00069 1/K	0.000699 1/K	0.000704 1/K	0.000713 1/K	0.000722 1/K
50000 kPa	0.000679 1/K	0.00068 1/K	0.000688 1/K	0.000691 1/K	0.000701 1/K	0.000708 1/K
55000 kPa	0.000669 1/K	0.000669 1/K	0.000676 1/K	0.000679 1/K	0.000689 1/K	0.000697 1/K

CCO [ethanol]
isobaric coefficient of expansion
Settings	278.15 K	288.15 K	298.15 K	308.15 K	318.15 K	328.15 K	338.15 K	348.15 K
5000 kPa	0.00102 1/K	0.00103 1/K	0.00106 1/K	0.00109 1/K	0.00112 1/K	0.00116 1/K	0.00121 1/K	0.00127 1/K
10000 kPa	0.000988 1/K	0.00101 1/K	0.00103 1/K	0.00105 1/K	0.00109 1/K	0.00112 1/K	0.00116 1/K	0.00122 1/K
15000 kPa	0.000966 1/K	0.000983 1/K	0.001 1/K	0.00102 1/K	0.00105 1/K	0.00108 1/K	0.00112 1/K	0.00116 1/K
20000 kPa	0.000948 1/K	0.000956 1/K	0.000973 1/K	0.000994 1/K	0.00102 1/K	0.00105 1/K	0.00108 1/K	0.00112 1/K
25000 kPa	0.000928 1/K	0.000936 1/K	0.000952 1/K	0.000971 1/K	0.000988 1/K	0.00102 1/K	0.00105 1/K	0.00108 1/K
30000 kPa	0.000908 1/K	0.000918 1/K	0.000929 1/K	0.000944 1/K	0.000966 1/K	0.000988 1/K	0.00102 1/K	0.00105 1/K
35000 kPa	0.000892 1/K	0.000899 1/K	0.000908 1/K	0.000921 1/K	0.000942 1/K	0.000962 1/K	0.000988 1/K	0.00102 1/K
40000 kPa	0.000882 1/K	0.000875 1/K	0.000887 1/K	0.000903 1/K	0.000918 1/K	0.000936 1/K	0.000958 1/K	0.000984 1/K
45000 kPa	0.000863 1/K	0.000866 1/K	0.000871 1/K	0.000883 1/K	0.000898 1/K	0.000912 1/K	0.000935 1/K	0.000959 1/K
50000 kPa	0.000852 1/K	0.00085 1/K	0.000853 1/K	0.000865 1/K	0.000882 1/K	0.000894 1/K	0.000911 1/K	0.000938 1/K
55000 kPa	0.000839 1/K	0.000831 1/K	0.000839 1/K	0.000848 1/K	0.000863 1/K	0.000877 1/K	0.000891 1/K	0.000915 1/K
